{"source": "paper PMC7799360", "about": "“Reprogramming immunosuppressive myeloid cells facilitates immunotherapy for colorectal cancer” (EMBO Molecular Medicine, 2020)", "key": {"AT1": {"target": "T1, AT1 (Homo sapiens, UniProt P30556)", "T1 construct": "Pharmaron (Beijing, China), contract laboratory", "T1 sequence (P30556 whole entry)": "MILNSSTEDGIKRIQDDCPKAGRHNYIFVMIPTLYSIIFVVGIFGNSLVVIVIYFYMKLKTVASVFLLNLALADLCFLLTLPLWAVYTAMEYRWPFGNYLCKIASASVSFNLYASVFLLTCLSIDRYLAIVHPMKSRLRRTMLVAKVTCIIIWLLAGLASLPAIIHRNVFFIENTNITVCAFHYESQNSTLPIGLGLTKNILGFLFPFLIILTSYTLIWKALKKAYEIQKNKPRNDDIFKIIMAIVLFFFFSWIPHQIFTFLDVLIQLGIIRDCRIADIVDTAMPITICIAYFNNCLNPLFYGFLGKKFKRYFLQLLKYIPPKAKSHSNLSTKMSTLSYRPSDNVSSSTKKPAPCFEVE", "test": "GPCR calcium flux assay", "assay_type": "cell-based", "conditions": "read-out: Known agonists EC50"}, "HTR1B": {"target": "HTR1B (Homo sapiens, UniProt P28222)", "sequence (P28222 whole entry)": "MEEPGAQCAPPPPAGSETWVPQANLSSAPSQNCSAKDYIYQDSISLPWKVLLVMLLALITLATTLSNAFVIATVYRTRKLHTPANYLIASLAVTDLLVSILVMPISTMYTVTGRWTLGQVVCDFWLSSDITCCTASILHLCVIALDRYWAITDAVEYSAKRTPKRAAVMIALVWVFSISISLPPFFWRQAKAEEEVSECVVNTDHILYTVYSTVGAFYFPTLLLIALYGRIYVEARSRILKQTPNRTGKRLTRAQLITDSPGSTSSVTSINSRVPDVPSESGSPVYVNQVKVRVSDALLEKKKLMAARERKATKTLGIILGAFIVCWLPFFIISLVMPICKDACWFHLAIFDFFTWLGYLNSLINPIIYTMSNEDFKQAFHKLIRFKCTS", "test": "LANCE Ultra cAMP assay"}, "BB1": {"target": "T2, BB1 (Homo sapiens, UniProt P28336)", "T2 construct": "Pharmaron (Beijing, China), contract laboratory", "T2 sequence (P28336 whole entry)": "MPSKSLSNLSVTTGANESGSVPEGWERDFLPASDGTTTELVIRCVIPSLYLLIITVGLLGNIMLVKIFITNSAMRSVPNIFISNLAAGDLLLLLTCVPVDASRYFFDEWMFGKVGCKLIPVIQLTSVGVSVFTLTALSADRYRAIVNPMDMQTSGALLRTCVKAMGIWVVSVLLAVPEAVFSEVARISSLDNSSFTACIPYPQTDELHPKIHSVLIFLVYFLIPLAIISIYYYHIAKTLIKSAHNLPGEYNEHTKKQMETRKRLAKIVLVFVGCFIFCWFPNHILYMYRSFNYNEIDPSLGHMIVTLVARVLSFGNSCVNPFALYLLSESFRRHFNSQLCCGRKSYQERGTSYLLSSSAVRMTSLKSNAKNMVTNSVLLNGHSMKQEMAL", "test": "GPCR calcium flux assay", "assay_type": "cell-based", "conditions": "read-out: Known agonists EC50"}, "OPRD1": {"target": "T3, OPRD1 (Homo sapiens, UniProt P41143)", "T3 construct": "Pharmaron (Beijing, China), contract laboratory", "T3 sequence (P41143 whole entry, species assumed)": "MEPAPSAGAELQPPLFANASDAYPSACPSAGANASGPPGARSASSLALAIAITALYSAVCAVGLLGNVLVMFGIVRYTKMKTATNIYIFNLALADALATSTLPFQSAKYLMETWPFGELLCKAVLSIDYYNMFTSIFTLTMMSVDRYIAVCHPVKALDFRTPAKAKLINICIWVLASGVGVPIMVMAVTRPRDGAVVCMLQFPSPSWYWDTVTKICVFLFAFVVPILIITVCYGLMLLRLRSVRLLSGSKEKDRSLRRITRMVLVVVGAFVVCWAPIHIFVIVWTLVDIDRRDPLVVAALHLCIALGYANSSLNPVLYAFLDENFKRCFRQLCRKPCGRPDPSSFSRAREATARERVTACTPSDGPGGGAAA", "test": "GPCR calcium flux assay", "assay_type": "cell-based", "conditions": "read-out: Known agonists EC50"}, "CB2": {"target": "CB2 (Homo sapiens, UniProt P34972)", "sequence (P34972 whole entry, species assumed)": "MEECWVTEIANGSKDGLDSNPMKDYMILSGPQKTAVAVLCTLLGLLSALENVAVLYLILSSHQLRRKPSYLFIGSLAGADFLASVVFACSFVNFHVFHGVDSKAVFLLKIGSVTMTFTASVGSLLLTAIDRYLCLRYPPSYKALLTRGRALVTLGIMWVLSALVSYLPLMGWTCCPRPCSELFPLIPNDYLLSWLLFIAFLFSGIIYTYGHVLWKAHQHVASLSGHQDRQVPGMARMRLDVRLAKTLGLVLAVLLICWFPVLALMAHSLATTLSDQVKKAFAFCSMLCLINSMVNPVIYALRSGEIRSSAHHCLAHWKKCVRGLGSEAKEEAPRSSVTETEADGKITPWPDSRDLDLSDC", "test": "LANCE Ultra cAMP assay", "conditions": "read-out: IC50 (known antagonists, TP-16); CB2"}, "HTR2B": {"target": "T4, HTR2B (Homo sapiens, UniProt P41595)", "T4 construct": "Pharmaron (Beijing, China), contract laboratory", "T4 sequence (P41595 whole entry, species assumed)": "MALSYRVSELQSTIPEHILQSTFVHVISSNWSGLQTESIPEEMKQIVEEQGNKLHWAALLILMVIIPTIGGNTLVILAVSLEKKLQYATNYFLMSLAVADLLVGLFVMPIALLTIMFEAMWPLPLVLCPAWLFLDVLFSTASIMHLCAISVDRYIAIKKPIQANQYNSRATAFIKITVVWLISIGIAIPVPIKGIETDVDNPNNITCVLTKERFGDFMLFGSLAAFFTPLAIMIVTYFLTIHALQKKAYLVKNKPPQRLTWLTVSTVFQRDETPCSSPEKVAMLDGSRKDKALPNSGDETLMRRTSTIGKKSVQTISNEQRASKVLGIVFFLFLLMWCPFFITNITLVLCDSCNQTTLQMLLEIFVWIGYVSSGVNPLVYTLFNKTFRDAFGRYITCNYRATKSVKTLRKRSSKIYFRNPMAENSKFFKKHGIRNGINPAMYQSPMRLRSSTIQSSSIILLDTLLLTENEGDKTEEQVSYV", "test": "GPCR calcium flux assay", "assay_type": "cell-based"}}, "note": "Where a name gives a salt, the structure may show the parent alone. Where no end group is shown, it is not given here.", "data": [{"molecule": "DRVYVHPF [Angiotensin II 5-valine]", "values": [{"measurement": "EC50", "setting": "AT1", "value": 0.2, "unit": "nM"}]}, {"molecule": "COc1ccc2[nH]cc(C3=CCNCC3)c2c1", "note": "[RU24969]", "values": [{"measurement": "EC50", "setting": "HTR1B", "value": 18, "unit": "nM"}]}, {"molecule": "CSCC[C@H](NC(=O)[C@H](Cc1ccccc1)NC(=O)[C@H](Cc1c[nH]cn1)NC(=O)CNC(=O)[C@@H](NC(=O)[C@H](C)NC(=O)[C@H](Cc1c[nH]c2ccccc12)NC(=O)[C@H](CC(C)C)NC(=O)[C@H](CC(N)=O)NC(=O)CN)[C@@H](C)O)C(N)=O", "note": "[Neuromedin B, reference compound]", "values": [{"measurement": "EC50", "setting": "BB1", "value": 0.2, "unit": "nM"}]}, {"molecule": "CN(C)CCCc1cc(C(=O)Nc2ccc(-c3ccncc3)cc2)ccc1O", "note": "[GR 55562 dihydrochloride]", "values": [{"measurement": "IC50", "setting": "HTR1B; read-out: IC50 (known antagonists, TP-16), HTR1B", "value": 35, "unit": "nM"}]}, {"molecule": "CCN(CC)C(=O)c1ccc(C2=CC3(CCNCC3)Oc3cccc(O)c32)cc1", "note": "[ADL-5859, reference compound]", "values": [{"measurement": "EC50", "setting": "OPRD1", "value": 266, "unit": "nM"}]}, {"molecule": "COc1ccc(C(=O)c2c(C)n(CCN3CCOCC3)c3cc(I)ccc23)cc1", "note": "[AM630, reference compound]", "values": [{"measurement": "IC50", "setting": "CB2", "value": 260, "unit": "nM"}]}, {"molecule": "Cc1nc2sccn2c(=O)c1CCN1CCC(=C(c2ccc(F)cc2)c2ccc(F)cc2)CC1", "note": "[Ritanserin, reference compound]", "values": [{"measurement": "IC50", "setting": "HTR2B", "value": 30.8, "unit": "nM"}]}]}
